Patent publication US20140271734A1, “BILE ACID RECYCLING INHIBITORS FOR TREATMENT OF BARRETT'S ESOPHAGUS AND GASTROESOPHAGEAL REFLUX DISEASE” (LUMENA PHARMACEUTICALS, INC., priority 2013, published 2014)

How the values were obtained:
[1] = test system: bile acids in the feces; experiment: Fecal bile acid excretion in ZDF rats after oral 264W94; assay type: in vivo, Zucker diabetic fatty rats (ZDF/GmiCrl-fa/fa)
Description: (§1) Male Zucker diabetic fatty rats (ZDF/GmiCrl-fa/fa) were purchased from Charles River (Raleigh, N.C.) and housed under controlled conditions (12:12 light-dark cycle, 24° C. and 50% relative humidity) with free access to rodent food (Purina 5008, Harlan Teklad, Indianapolis, Ind.). All rats arrived at seven weeks of age (±3 days). After a one-week acclimation period, rats were anesthetized with isoflurane (Abbott Laboratories, IL) and tail-vein blood samples were collected at 9 am without fasting. Blood glucose levels were measured using a glucometer (Bayer, Leverkusen, Germany). In order to ensure balanced treatment groups, ZDF rats were assigned to six treatment groups based upon baseline glucose: vehicle (0.5% HPMC, 0.1% Tween80) and five doses of 264W94 (0.001, 0.01, 0.1, 1, 10 mg/kg). All treatments were given via oral gavage twice a day and animals were followed for two weeks with blood samples collected from tail vein at the end of each week at 9 am without fasting. Fecal samples were collected for 24 hours during the second week of treatment.
(§2) Non-esterified fatty acids (NEFA), bile acids, and bile acids in fecal extraction were measured using the Olympus AU640 clinical chemistry analyzer (Beckman Coulter, Irving, Tex.).

[2] = test system: plasma bile acid; experiment: Plasma bile acid concentrations in ZDF rats; assay type: in vivo
Description: as §1, §2
Male ZDF rats (n=4) were administered vehicle, SC-435 (1, 10 or 30 mg/kg) or LUM002 (0.3, 1, 3, 10 or 30 mg/kg) by oral gavage twice a day for 2 weeks. Plasma bile acid levels were determined at the end of the second week. […] Data are expressed as mean values±SEM.

[3] = test system: total serum bile acids; experiment: Plasma total serum bile acids in ZDF rats, week 3; assay type: in vivo; details: twice daily oral gavage
[4] = test system: Alanine Aminotransferase (ALAT); experiment: Plasma alanine aminotransferase in ZDF rats, week 3; assay type: in vivo; details: twice daily oral gavage
[5] = test system: plasma triglycerides; experiment: Plasma triglycerides in ZDF rats, week 3; assay type: in vivo; details: twice daily oral gavage, no dose-related response
[6] = test system: Hemoglobin A1c (HbA1c); experiment: Baseline-corrected percent HbA1c in ZDF rats; assay type: in vivo; details: twice daily oral gavage
[7] = test system: GLP-2; experiment: GLP-2 in plasma of non-fasted ZDF rats, 2 weeks treatment; assay type: in vivo
[8] = test system: plasma lipase; experiment: Plasma lipase in ZDF rats, week 3; assay type: in vivo; details: twice daily oral gavage
[9] = test system: plasma amylase; experiment: Plasma amylase in ZDF rats, week 3; assay type: in vivo; details: twice daily oral gavage
[10] = test system: Alkaline Phosphatase (ALP); details: twice daily oral gavage; Week 3
Description: This study was conducted to determine the effects of two non-absorbed ASBTi compounds in the ZDF rat model after 3 weeks of treatment.
Animals were acclimatized for 5-7 days after arrival. […] The 2nd set of study was initiated after completion of the 1st. Test compound formulation prepared every other day and stored at 4° C. […] After 3rd week of treatment blood samples were collected by cardiac puncture from fasted animals for blood chemistry analysis: ALAT, ASAT, GGT, Alkaline Phosphatase and total Bile Acids. Tests were performed in contract clinical laboratory (Liver Profile SA320, Antech Diagnostics, Orange Country, Calif.).
Blood was collected by tail vein bleed weekly and after 3 weeks of treatment by cardiopuncture for serum tests. Data for each group is presented as the Mean Value±SEM. Statistically evaluation by t-test: *P<0.05, **P<0.01,***P<0.001 vs. vehicle group.

[11] = 264W94 0.001-10 mg/kg oral gavage twice a day, 2 weeks

Row | Compound | Bile acids in the feces [1, 11] | Fecal bile acid concentrations elevated vs vehicle treated rats ([1]; 264W94 0.001-10 mg/kg oral gavage twice a day, 24 h feces in second week) | Fecal NEFA ([1]; 264W94 oral gavage twice a day, 2 weeks) | ED50 (fecal bile acid elevation) ([1]; oral gavage twice a day, 2 weeks) [mg/kg] | Plasma bile acid concentrations [2, 11] | Plasma bile acid levels ([2]; SC-435 1, 10 or 30 mg/kg, LUM002 0.3, 1, 3, 10 or 30 mg/kg, oral gavage twice a day, end of second week, n=4) | Plasma total serum bile acids (SBA) [3] | Plasma alanine aminotransferase (ALAT) [4] | Fasting plasma triglycerides [5] | Baseline-corrected percent HbA1c [6] | GLP-2 in plasma [7] | Plasma lipase [8] | Plasma amylase [9] | Plasma alkaline phosphatase (ALP) [10]
1 | CCCC[C@]1(CC)CS(=O)(=O)c2cc(OC)c(OC)cc2[C@@H](c2ccccc2)N1 [Compound 264W94] | dose-dependently increased | up to 6.5 fold | slightly increased | 0.17 | decreased dose-dependently | – | – | – | – | – | – | – | – | –
2 | CCCCC1(CCCC)CS(=O)(=O)c2ccc(N(C)C)cc2[C@@H](c2ccc(OCCCC[N+]34CCN(CC3)CC4)cc2)[C@H]1O.CS(=O)(=O)[O-] [SC-435, 1-[4-[4-[(4R,5R)-3,3-dibutyl-7-(dimethylamino)-2,3,4,5-tetrahydro-4-hydroxy-1,1-dioxido-1-benzothiepin-5-yl]phenoxy]butyl]4-aza-1-azoniabicyclo[2.2.2]octane methanesulfonate salt, reference compound] | – | – | – | – | – | decreased for all doses | statistically significant reductions in SBA | Neither LUM002 nor SC-435 caused statistically significant reductions | statistically significant elevations | significant dose-dependent reductions | significant elevations in GLP2 at higher doses | statistically significant reductions in plasma lipase at higher doses | Neither LUM002 nor SC-435 caused a statistically significant changes | significant reductions in ALP
